{"source": "patent US20220107328A1", "about": "“METHODS OF TREATING LIVER DISEASES” (Camp4 Therapeutics Corporation, priority 2018, published 2022)", "key": {"[1]": {"system": "PNPLA3 mRNA", "assay": "qRT-PCR of PNPLA3 mRNA in compound-treated mouse hepatocytes", "type": "cell-based", "conditions": "for Relative PNPLA3 mRNA levels: mouse hepatocytes, 1 μM, normalized to ACTB"}, "[2]": {"system": "PNPLA3 mRNA", "assay": "qRT-PCR of PNPLA3 mRNA in human primary hepatic stellate cells", "type": "cell-based", "conditions": "for PNPLA3 mRNA remaining after treatment compared to untreated cells / mrna remaining at 1 µM / mrna remaining at 10 µM: Human Stellate; for Relative PNPLA3 mRNA levels RQ: hepatic stellate cells; for mrna remaining at 1 µM / mrna remaining at 10 µM: read-out: PNPLA3 mRNA remaining after treatment compared to untreated cells"}, "[3]": {"system": "PNPLA3 mRNA", "assay": "qRT-PCR of PNPLA3 mRNA in compound-treated primary human hepatocytes", "conditions": "for mrna remaining at 10 µM / mrna remaining at 1 µM: Homo sapiens, Hepatocyte"}, "[4]": {"system": "COL1A1 mRNA", "assay": "qRT-PCR of COL1A1 mRNA in human primary hepatic stellate cells", "type": "cell-based", "conditions": "for Relative COL1A1 mRNA levels RQ: hepatic stellate cells"}, "[5]": {"system": "PCSK9 mRNA", "assay": "qRT-PCR of PCSK9 mRNA in primary hepatocytes", "type": "cell-based, human", "conditions": "donor 4178, 3 μM, relative to GUSB"}, "[6]": {"system": "PNPLA3 expression", "assay": "RNA-seq of compound-treated primary human hepatocytes", "type": "cell-based", "conditions": "PNPLA3 expression, RNA-seq"}, "[7]": {"conditions": "Hepatocyte, Mouse hepatocytes, 10 uM, read-out: PNPLA3 mRNA remaining after treatment compared to untreated cells"}, "[8]": {"conditions": "read-out: PNPLA3 mRNA remaining after treatment compared to untreated cells, H Hep Donor-3, 10 uM"}, "[9]": {"conditions": "read-out: PNPLA3 mRNA remaining after treatment compared to untreated cells, H Hep Donor-4, 1 uM"}, "[10]": {"conditions": "read-out: PNPLA3 mRNA remaining after treatment compared to untreated cells, H Hep Donor-4, 10 uM"}, "[11]": {"conditions": "read-out: PNPLA3 mRNA remaining after treatment compared to untreated cells, H Hep Donor-5, 1 uM"}, "[12]": {"conditions": "read-out: PNPLA3 mRNA remaining after treatment compared to untreated cells, H Hep Donor-5, 10 uM"}}, "data": [{"smiles": "CN(c1ncccc1CNc1nc(Nc2ccc3c(c2)CC(=O)N3)ncc1C(F)(F)F)S(C)(=O)=O", "note": "[PF-00562271]", "values": [{"measurement": "PNPLA3 mRNA remaining after treatment compared to untreated cells", "setting": "[1]; Mouse hepatocytes, 10 uM", "result": 0.27}, {"measurement": "PNPLA3 mRNA remaining after treatment compared to untreated cells", "setting": "[2]; 1 uM", "result": 1}, {"measurement": "PNPLA3 mRNA remaining after treatment compared to untreated cells", "setting": "[2]; 10 uM", "result": 0.18}, {"measurement": "PNPLA3 mRNA remaining after treatment compared to untreated cells", "setting": "[3]; H Hep Donor-2, 10 uM", "result": 0.34}, {"measurement": "PNPLA3 mRNA remaining after treatment compared to untreated cells", "setting": "[3]; H Hep Donor-3, 10 uM", "result": 0.2}, {"measurement": "PNPLA3 mRNA remaining after treatment compared to untreated cells", "setting": "[3]; H Hep Donor-4, 10 uM", "result": 0.5}, {"measurement": "PNPLA3 mRNA remaining after treatment compared to untreated cells", "setting": "[3]; H Hep Donor-5, 1 uM", "result": 1}, {"measurement": "PNPLA3 mRNA remaining after treatment compared to untreated cells", "setting": "[3]; H Hep Donor-5, 10 uM", "result": 0.25}]}, {"smiles": "CC(C)n1nc(-c2cc3cc(O)ccc3[nH]2)c2c(N)ncnc21", "note": "[PP242, Torkinib]", "values": [{"measurement": "Relative PNPLA3 mRNA levels", "setting": "[1]", "result": "0.44 ± 0.10"}, {"measurement": "Relative PNPLA3 mRNA levels RQ", "setting": "[2]; 0.01 μM", "result": 1.07}, {"measurement": "Relative PNPLA3 mRNA levels RQ", "setting": "[2]; 0.1 μM", "result": 0.74}, {"measurement": "Relative PNPLA3 mRNA levels RQ", "setting": "[2]; 1 μM", "result": 0.39}, {"measurement": "Relative PNPLA3 mRNA levels RQ", "setting": "[2]; 10 μM", "result": 0.63}, {"measurement": "Relative COL1A1 mRNA levels RQ", "setting": "[4]; 0.01 μM", "result": 1.09}, {"measurement": "Relative COL1A1 mRNA levels RQ", "setting": "[4]; 0.1 μM", "result": 1.02}, {"measurement": "Relative COL1A1 mRNA levels RQ", "setting": "[4]; 1 μM", "result": 0.40}, {"measurement": "Relative COL1A1 mRNA levels RQ", "setting": "[4]; 10 μM", "result": 0.18}, {"measurement": "Relative PNPLA3 mRNA levels", "setting": "[3]", "result": "0.50 ± 0.02"}]}, {"smiles": "Cc1cccc(-c2nn3c(c2-c2ccnc4ccc(C(N)=O)cc24)CCC3)n1", "note": "[LY2157299 Galunisertib]", "values": [{"measurement": "mrna remaining at 10 µM", "setting": "[1]; [7]", "result": 102, "unit": "%"}, {"measurement": "mrna remaining at 1 µM", "setting": "[2]; 1 uM", "result": 65, "unit": "%"}, {"measurement": "mrna remaining at 10 µM", "setting": "[2]; 10 uM", "result": 100, "unit": "%"}, {"measurement": "mrna remaining at 10 µM", "setting": "[3]; read-out: PNPLA3 mRNA remaining after treatment compared to untreated cells, H Hep Donor-1, 10 uM", "result": 50, "unit": "%"}, {"measurement": "mrna remaining at 10 µM", "setting": "[3]; read-out: PNPLA3 mRNA remaining after treatment compared to untreated cells, H Hep Donor-2, 10 uM", "result": 70, "unit": "%"}, {"measurement": "mrna remaining at 10 µM", "setting": "[3]; [8]", "result": 80, "unit": "%"}, {"measurement": "mrna remaining at 1 µM", "setting": "[3]; [9]", "result": 75, "unit": "%"}, {"measurement": "mrna remaining at 10 µM", "setting": "[3]; [10]", "result": 50, "unit": "%"}, {"measurement": "mrna remaining at 1 µM", "setting": "[3]; [11]", "result": 55, "unit": "%"}, {"measurement": "mrna remaining at 10 µM", "setting": "[3]; [12]", "result": 50, "unit": "%"}]}, {"smiles": "CC(C)c1cc(CNc2nc(Nc3cc(C4CC4)[nH]n3)cc(N3CCN(C)CC3)n2)on1", "note": "[XL228]", "values": [{"measurement": "mrna remaining at 1 µM", "setting": "[1]; Hepatocyte, Mouse hepatocytes, 1 uM, read-out: PNPLA3 mRNA remaining after treatment compared to untreated cells", "result": 40, "unit": "%"}, {"measurement": "mrna remaining at 10 µM", "setting": "[1]; [7]", "result": 12, "unit": "%"}, {"measurement": "mrna remaining at 1 µM", "setting": "[2]; 1 uM", "result": 80, "unit": "%"}, {"measurement": "mrna remaining at 10 µM", "setting": "[2]; 10 uM", "result": 70, "unit": "%"}, {"measurement": "mrna remaining at 1 µM", "setting": "[3]; read-out: PNPLA3 mRNA remaining after treatment compared to untreated cells, H Hep Donor-1, 1 uM (stated in cell)", "result": 40, "unit": "%"}, {"measurement": "mrna remaining at 10 µM", "setting": "[3]; [8]", "result": 30, "unit": "%"}, {"measurement": "mrna remaining at 1 µM", "setting": "[3]; [9]", "result": 55, "unit": "%"}, {"measurement": "mrna remaining at 10 µM", "setting": "[3]; [10]", "result": 55, "unit": "%"}, {"measurement": "mrna remaining at 1 µM", "setting": "[3]; [11]", "result": 55, "unit": "%"}, {"measurement": "mrna remaining at 10 µM", "setting": "[3]; [12]", "result": 25, "unit": "%"}]}, {"smiles": "CO[C@H]1C[C@@H]2CC[C@@H](C)[C@@](O)(O2)C(=O)C(=O)N2CCCC[C@H]2C(=O)O[C@H]([C@H](C)C[C@@H]2CC[C@@H](OCCO)[C@H](OC)C2)CC(=O)[C@H](C)/C=C(\\C)[C@@H](O)[C@@H](OC)C(=O)[C@H](C)C[C@H](C)/C=C/C=C/C=C/1C", "note": "[Everolimus]", "values": [{"measurement": "Relative PNPLA3 mRNA levels", "setting": "[1]", "result": "0.31 ± 0.10"}, {"measurement": "Primary Stellate cells PNPLA3 (fold change in mRNA expression)", "setting": "[2]; 3 μM, relative to GAPDH", "result": 0.36}, {"measurement": "Relative PNPLA3 mRNA levels RQ", "setting": "[2]; 0.01 μM", "result": 0.64}, {"measurement": "Relative PNPLA3 mRNA levels RQ", "setting": "[2]; 0.1 μM", "result": 0.47}, {"measurement": "Relative PNPLA3 mRNA levels RQ", "setting": "[2]; 1 μM", "result": 0.56}, {"measurement": "Relative PNPLA3 mRNA levels RQ", "setting": "[2]; 10 μM", "result": 0.44}, {"measurement": "Primary Stellate cells COL1A1 (fold change in mRNA expression)", "setting": "[4]; 3 μM, relative to GAPDH", "result": 0.93}, {"measurement": "Relative COL1A1 mRNA levels RQ", "setting": "[4]; 0.01 μM", "result": 1.07}, {"measurement": "Relative COL1A1 mRNA levels RQ", "setting": "[4]; 0.1 μM", "result": 1.01}, {"measurement": "Relative COL1A1 mRNA levels RQ", "setting": "[4]; 1 μM", "result": 1.12}, {"measurement": "Relative COL1A1 mRNA levels RQ", "setting": "[4]; 10 μM", "result": 1.19}, {"measurement": "Primary Hepatocytes 4178 PCSK9 (fold change in mRNA expression)", "setting": "[5]", "result": 0.66}, {"measurement": "Primary Hepatocytes 4178 PNPLA3 (fold change in mRNA expression)", "setting": "[3]; donor 4178, 3 μM, relative to GUSB", "result": 0.60}, {"measurement": "Primary Hepatocytes 4282 PNPLA3 (fold change in mRNA expression)", "setting": "[3]; donor 4282, 3 μM, relative to GUSB", "result": 1.00}, {"measurement": "Relative PNPLA3 mRNA levels", "setting": "[3]; mTOR pathway inhibitors, 10 μM, human hepatocytes, qRT-PCR, mean of three replicates ± standard deviation", "result": "0.98 ± 0.17"}]}, {"smiles": "CN1C(=O)c2sccc2N(C)c2nc(Nc3ccc(S(N)(=O)=O)cc3)ncc21", "note": "[XMU-MP-1]", "values": [{"measurement": "Fold change (Log 2) vs untreated", "setting": "[6]", "result": "−0.66"}]}, {"smiles": "FC(F)(F)c1ccc(/C=C/c2nc(COc3ccc(CCCCn4ccnn4)cc3)co2)cc1", "note": "[Mubritinib (TAK 165)]", "values": [{"measurement": "PNPLA3 mRNA remaining after treatment compared to untreated cells", "setting": "[1]; Mouse hepatocytes, 1 uM", "result": 1.12}, {"measurement": "PNPLA3 mRNA remaining after treatment compared to untreated cells", "setting": "[1]; Mouse hepatocytes, 10 uM", "result": 0.09}, {"measurement": "PNPLA3 mRNA remaining after treatment compared to untreated cells", "setting": "[2]; 1 uM", "result": 0.2}, {"measurement": "PNPLA3 mRNA remaining after treatment compared to untreated cells", "setting": "[2]; 10 uM", "result": 0.78}, {"measurement": "PNPLA3 mRNA remaining after treatment compared to untreated cells", "setting": "[3]; H Hep Donor-2, 10 uM", "result": 0.39}, {"measurement": "PNPLA3 mRNA remaining after treatment compared to untreated cells", "setting": "[3]; H Hep Donor-3, 10 uM", "result": 0.2}, {"measurement": "PNPLA3 mRNA remaining after treatment compared to untreated cells", "setting": "[3]; H Hep Donor-4, 1 uM", "result": 0.55}, {"measurement": "PNPLA3 mRNA remaining after treatment compared to untreated cells", "setting": "[3]; H Hep Donor-4, 10 uM", "result": 0.4}, {"measurement": "PNPLA3 mRNA remaining after treatment compared to untreated cells", "setting": "[3]; H Hep Donor-5, 1 uM", "result": 0.6}, {"measurement": "PNPLA3 mRNA remaining after treatment compared to untreated cells", "setting": "[3]; H Hep Donor-5, 10 uM", "result": 0.25}]}]}
